Where a chain is given by its changes, count along the chain named. Where a SMILES comes first, the peptide text is derived from it. Bridges are numbered along the chain shown (N, C = ends).
Key:
Assay in all cases: IP1 accumulation
Format in all cases: cell-based
Details in all cases: mean ± S.E.M.; for Emax: IP1 maximal response, SEM
hCTR H296A = biological target: T1, hCTR H296A (Homo sapiens, UniProt P30988, H296A)
T1 construct: c-Myc (N); expressed in transfected cells
T1 sequence (P30988 25-474 H296A): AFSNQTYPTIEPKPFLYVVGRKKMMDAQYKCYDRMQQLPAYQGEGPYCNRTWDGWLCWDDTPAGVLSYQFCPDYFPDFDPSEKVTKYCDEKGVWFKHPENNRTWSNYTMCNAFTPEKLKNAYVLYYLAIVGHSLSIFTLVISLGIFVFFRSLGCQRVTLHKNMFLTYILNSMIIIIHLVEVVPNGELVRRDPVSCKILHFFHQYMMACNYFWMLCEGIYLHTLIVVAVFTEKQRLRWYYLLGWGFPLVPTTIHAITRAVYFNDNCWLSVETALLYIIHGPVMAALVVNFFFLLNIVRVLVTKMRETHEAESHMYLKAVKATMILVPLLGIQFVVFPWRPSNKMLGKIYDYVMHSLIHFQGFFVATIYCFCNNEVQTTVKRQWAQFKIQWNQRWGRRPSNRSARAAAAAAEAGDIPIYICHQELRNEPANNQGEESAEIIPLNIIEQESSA
Method: (§1) Cells (2.5 × 10^4 cells/well) were plated into 96 well trays and cultured overnight. Cells were stimulated with increasing concentration of ligands for 60 min in the presence of LiCl. Samples were lysed and endogenous IP1 was measured using an IP-One HTRF® assay kit (CisBio) as specified by the manufacturer. Data were normalized to the maximal response elicited by 100 μM of ATP.
(§2) Data were corrected for radioligand occupancy using the Cheng-Prusoff equation in Prism; as such data are reported as pKi. Emax and EC50 were estimated from concentration-response curves using with a 3-parameter logistic equation in Prism (v7). These values are a composite of functional affinity, efficacy and stimulus response coupling. […] Significance was accepted at P < 0.05.

hCTR N286A = biological target: T2, hCTR N286A (Homo sapiens, UniProt P30988, N286A)
T2 construct: c-Myc (N); expressed in transfected cells
T2 sequence (P30988 25-474 N286A): T1 sequence (P30988 25-474 H296A) with N262A, A272H
Method: as §1, §2

hCTR R281A = biological target: T3, hCTR R281A (Homo sapiens, UniProt P30988, R281A)
T3 construct: expressed in transfected cells
T3 sequence (P30988 25-474 R281A): T1 sequence (P30988 25-474 H296A) with R257A, A272H
Method: as §1, §2

hCTR W361A = biological target: T4, hCTR W361A (Homo sapiens, UniProt P30988, W361A)
T4 construct: expressed in transfected cells
T4 sequence (P30988 25-474 W361A): T1 sequence (P30988 25-474 H296A) with A272H, W337A
Method: as §1, §2

hCTR Y374A = biological target: T5, hCTR Y374A (Homo sapiens, UniProt P30988, Y374A)
T5 construct: c-Myc (N); expressed in transfected cells
T5 sequence (P30988 25-474 Y374A): T1 sequence (P30988 25-474 H296A) with A272H, Y350A
Method: as §1, §2

[1] = IP1, CV1-FlpIn cells, 60 min, LiCl

SMILES	Emax (hCTR H296A) [%]	Emax (hCTR N286A) [%]	Emax (hCTR R281A) [%]	Emax (hCTR W361A) [%]	Emax (hCTR Y374A) [%]	EC50 (hCTR H296A; [1]) [nM]	EC50 (hCTR N286A; [1]) [nM]	EC50 (hCTR R281A; [1]) [nM]	EC50 (hCTR W361A; [1]) [nM]	EC50 (hCTR Y374A; [1]) [nM]
CC[C@H](C)[C@H](NC(=O)[C@H](C)NC(=O)[C@@H](NC(=O)[C@H](CCC(N)=O)NC(=O)[C@@H]1CCCN1C(=O)[C@H](Cc1ccccc1)NC(=O)[C@@H](NC(=O)[C@H](Cc1c[nH]cn1)NC(=O)[C@H](Cc1ccccc1)NC(=O)[C@H](CCCCN)NC(=O)[C@H](CC(N)=O)NC(=O)[C@H](Cc1ccccc1)NC(=O)[C@H](CC(=O)O)NC(=O)[C@H](CCC(N)=O)NC(=O)[C@@H](NC(=O)[C@H](Cc1ccc(O)cc1)NC(=O)[C@@H](NC(=O)CNC(=O)[C@H](CC(C)C)NC(=O)[C@H](CCSC)NC(=O)[C@@H]1CSSC[C@H](N)C(=O)NCC(=O)N[C@@H](CC(N)=O)C(=O)N[C@@H](CC(C)C)C(=O)N[C@@H](CO)C(=O)N[C@@H]([C@@H](C)O)C(=O)N1)[C@@H](C)O)[C@@H](C)O)[C@@H](C)O)[C@@H](C)O)C(=O)NCC(=O)N[C@H](C(=O)NCC(=O)N[C@@H](C)C(=O)N1CCC[C@H]1C(N)=O)C(C)C [hCT]	73 ± 6	40 ± 3	30 ± 4	89 ± 9	110 ± 9	–	–	–	–	–
CC(C)C[C@H](NC(=O)[C@H](CCCCN)NC(=O)CNC(=O)[C@H](CC(C)C)NC(=O)[C@@H](NC(=O)[C@@H]1CSSC[C@H](N)C(=O)N[C@@H](CO)C(=O)N[C@@H](CC(N)=O)C(=O)N[C@@H](CC(C)C)C(=O)N[C@@H](CO)C(=O)N[C@@H]([C@@H](C)O)C(=O)N1)C(C)C)C(=O)N[C@@H](CO)C(=O)N[C@@H](CCC(N)=O)C(=O)N[C@@H](CCC(=O)O)C(=O)N[C@@H](CC(C)C)C(=O)N[C@@H](Cc1c[nH]cn1)C(=O)N[C@@H](CCCCN)C(=O)N[C@@H](CC(C)C)C(=O)N[C@@H](CCC(N)=O)C(=O)N[C@H](C(=O)N[C@@H](Cc1ccc(O)cc1)C(=O)N1CCC[C@H]1C(=O)N[C@@H](CCCNC(=N)N)C(=O)N[C@H](C(=O)N[C@@H](CC(N)=O)C(=O)N[C@H](C(=O)NCC(=O)N[C@@H](CO)C(=O)NCC(=O)N[C@H](C(=O)N1CCC[C@H]1C(N)=O)[C@@H](C)O)[C@@H](C)O)[C@@H](C)O)[C@@H](C)O [sCT]	101 ± 5	59 ± 5	91 ± 6	108 ± 6	102 ± 6	–	–	–	–	–
CSCC[C@H](NC(=O)CNC(=O)[C@H](CO)NC(=O)[C@H](Cc1ccccc1)NC(=O)[C@H](CCCNC(=N)N)NC(=O)[C@H](Cc1c[nH]cn1)NC(=O)[C@H](Cc1ccccc1)NC(=O)[C@H](CC(N)=O)NC(=O)[C@H](CC(N)=O)NC(=O)[C@H](CC(C)C)NC(=O)[C@H](CC(N)=O)NC(=O)[C@H](CCCNC(=N)N)NC(=O)[C@H](Cc1c[nH]c2ccccc12)NC(=O)[C@H](Cc1ccc(O)cc1)NC(=O)[C@H](C)NC(=O)[C@H](CO)NC(=O)[C@H](CC(C)C)NC(=O)[C@@H](NC(=O)[C@@H]1CSSC[C@H](N)C(=O)N[C@@H](CO)C(=O)N[C@@H](CC(N)=O)C(=O)N[C@@H](CC(C)C)C(=O)N[C@@H](CO)C(=O)N[C@@H]([C@@H](C)O)C(=O)N1)C(C)C)C(=O)NCC(=O)N[C@@H](Cc1ccccc1)C(=O)NCC(=O)N1CCC[C@H]1C(=O)N[C@@H](CCC(=O)O)C(=O)N[C@H](C(=O)N1CCC[C@H]1C(N)=O)[C@@H](C)O [pCT] (H-CSNLSTCVLSAYWRNLNNFHRFSGMGFGPETP-NH2; disulfide 1-7)	101 ± 7	76 ± 6	52 ± 4	80 ± 6	106 ± 6	4.47	0.562	2.24	8.32	12.3

Source: PMC5908784, “Extracellular loops 2 and 3 of the calcitonin receptor selectively modify agonist binding and efficacy” (Biochemical Pharmacology, 2018)
